Reference: patent US20140056983A1, “FOOD ADDITIVE FOR RUMINANTS BASED ON EUGENOL AND CINNAMALDEHYDE” (priority 2005, published 2014)

Columns and labels:
[1] = test system: liquid taken from the rumen; assay: Study 1: in vitro digestibility of dehydrated alfalfa in rumen liquid (Tilley and Terry method); design: species or system cows; details: for ADFd (digestibility of acid digestible fiber) / DMd (digestibility of the dry matter) / NDFd (digestibility of neutral digestible fiber): dehydrated alfalfa, 30 ppm additive in total (mixture 15 + 15 ppm), 39° C., 24 hours; for digestibility of the fibers of the dehydrated alfalfa (in words): versus no additive
Protocol: During this first study, the effects of a mixture according to the invention on the digestibility of the feed of the ruminant animals was analyzed, by conducting an “in vitro” study in accordance with the Tilley and Terry method (1963). For a more complete description of this method, please refer to the following publication: […]. and Terry, R. A. 1963. A two stage technique for the in vitro digestion of forage crops. J. Brit. Grassland Soc. 18-104-111. For incubation the following was used: • a) The basic feed made up of 100% dehydrated alfalfa, supplemented by an equal amount of Peugenol, or of cinnamaldehyde, or of a mixture of the two components; • b) MacDougall buffer; • c) Liquid taken from the empty rumen of four animals permanently equipped with a nozzle on the level of the rumen and nourished with the basic feed. […] The ruminated liquid originated in fistulated cows during the first 100 days of lactation. The state of the first container was preserved, without making any addition. […] In the third container, 30 ppm cinnamaldehyde was added. In the fourth container, 15 ppm of eugenol and 15 ppm of cinnamaldehyde was added. The containers were incubated at 39° C. during 24 hours. The DacronTM sachets were removed, washed and dried at 55° C. Various digestibility parameters were determined according to the Van Soest et al. method (1991). For a more complete description of this method, please refer to the following publication: Van Soest, P. J. Robertson. J. D., and Lewis, B. A. 1991. Methods for dietary fibre, neutral detergent fibre and non-starch polysaccharides in relation to animal nutrition. J. Dairy Se. 74: 3583-3597.

rumen fluid = assay: Study 5: in vitro feed digestibility, dose of the mixture versus monensin (Tilley and Terry method); design: species or system cows; details: after 24 hours; mixture 28% eugenol and 17% cinnamaldehyde at 3, 30, 300 mg per animal/per day; monensin as reference
Protocol: In the table above, the characteristics of each food are expressed as a percentage of dry matter, total protein, neutral digestible fiber (NDF), acid digestible fiber (ADF), for the oats, alfalfa, a complete feed (TMR). […] The effects of a mixture according to the invention on the feed digestibility according to the Tilley and Terry method were analyzed. […] Control bottles were also prepared, containing ethanol, to avoid the parasitic effects of fermentation due to ethanol. […] The results were analyzed by using mixed SAS procedures. The results were compared to the feed containing the monensin. The results from the feed containing monensin were considered a reference result. […] Thus, this fable reflects the digestibility of neutral digestible fiber (NDFd), digestibility of acid digestible fiber (ADFd), and dry matter digestibility (DMd), after 24 hours.

[2] = test system: Holstein-Freisan milk cows; assay: Study 2: food consumption and dairy production in milk cows, Latin Square 4x4; type: in vivo
Protocol: In the second study, the effect of a variation in the relative proportions of eugenol and cinnamaldehyde in a food additive on the production of meat and the dairy production was tested.
In this test, sixteen Holstein-Freisan milk cows, in their eighth week of lactation, were divided for Latin type Square 4×4 testing. Each period of treatment lasted two weeks.
The first group received a food without an additive.
The second group received a food containing 30 ppm cinnamaldehyde.
The third group received a food containing a mixture of 30 ppm cinnamaldehyde and 15 ppm of eugenol.
The fourth group received a food containing a mixture of 30 ppm eugenol and 16 ppm of cinnamaldehyde.
During each treatment period, the food consumption and the dairy production were measured.

[3] = milk cows, eighth week of lactation, two-week treatment periods, ppm in food

| SMILES | ADFd (digestibility of acid digestible fiber) [1] [%] | DMd (digestibility of the dry matter) [1] [%] | NDFd (digestibility of neutral digestible fiber) [1] [%] | digestibility of the fibers of the dehydrated alfalfa (in words) [1] | ADFd (digestibility of acid digestible fiber) (rumen fluid) | DMd (dry matter digestibility) (rumen fluid) | NDFd (digestibility of neutral digestible fiber) (rumen fluid) | Food Consumption [2, 3] [b kg MS/animal/d] | Milk Production [2, 3] [l/animal/d] | food consumption (in words) ([2]; versus no additive) | milk production (in words) ([2]; versus no additive) |
| --- | --- | --- | --- | --- | --- | --- | --- | --- | --- | --- | --- |
| C=CCc1ccc(O)c(OC)c1 [Eugenol, eugenol] | 8.05 | 40.02 | 5.63 | does not improve |  |  |  |  |  |  |  |
| CC[C@@]1([C@@H]2O[C@@H]([C@H]3O[C@@](O)(CO)[C@H](C)C[C@@H]3C)C[C@@H]2C)CC[C@H]([C@]2(C)CC[C@]3(C[C@H](O)[C@@H](C)[C@@H]([C@@H](C)[C@@H](OC)[C@H](C)C(=O)O)O3)O2)O1 [MON, sodium-monensin] |  |  |  |  | 24.38 | 43.43 | 22.24 |  |  |  |  |
| O=CC=Cc1ccccc1 [Cinnamaldehyde, cinnamaldehyde] | 8.53 | 39.06 | 4.83 | does not improve |  |  |  | 2.571 | 37.23 | reduction | reduction |
